Data published in patent US10961215B2, “N-aryl and N-heteroaryl piperidine derivatives as liver X receptor beta agonists, compositions, and their use” (Merck Sharp & Dohme Corp., priority 2016, dated 2021).

Tests used:
[1] = target: T1, GST tagged LXRbeta LBD (ligand binding domain) (Homo sapiens, UniProt P55055); assay: LanthaScreen TR-FRET Liver X Receptor Coactivator Assay, LXR beta-LBD (co-activator recruitment; IP and % Emax relative to T0901317); assay type: biochemical; conditions: for EC50: Inflection Point of co-activator recruitment, LXR beta-LBD, TR-FRET; for Emax / LXR beta actiivty at max dose (%): efficacy at max dose in relation to reference T0901317, LXR beta-LBD; for Emax: read-out: LXR beta actiivty at max dose (%)
T1 construct: purchased Invitrogen pv4658.pps
T1 sequence (P55055 222-460 limits assumed): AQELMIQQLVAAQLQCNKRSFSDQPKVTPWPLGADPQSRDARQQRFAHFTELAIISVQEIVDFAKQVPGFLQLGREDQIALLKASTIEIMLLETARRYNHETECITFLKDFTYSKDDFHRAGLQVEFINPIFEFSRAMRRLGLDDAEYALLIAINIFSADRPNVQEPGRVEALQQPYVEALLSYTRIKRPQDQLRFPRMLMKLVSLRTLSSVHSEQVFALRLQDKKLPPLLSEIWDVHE
Method in brief: (§1)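 Compounds were first combined with the GST-LBD protein. A premixed fluorescein coactivator peptide and terbium-labelled anti-GST antibody was then added. Plates were incubated at room temperature and TR-FRET measured.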

[2] = target: T2, GST tagged LXRalpha LBD (ligand binding domain) (Homo sapiens, UniProt Q13133); assay: LanthaScreen TR-FRET Liver X Receptor Coactivator Assay, LXR alpha-LBD (co-activator recruitment; IP and % Emax relative to T0901317); assay type: biochemical; conditions: for LXR alpha IP (nM) / EC50: Inflection Point of co-activator recruitment, LXR alpha-LBD, TR-FRET; for Emax: read-out: LXR alpha actiivty at max dose (%)
T2 construct: purchased Invitrogen pv4655
T2 sequence (Q13133 209-447 limits assumed): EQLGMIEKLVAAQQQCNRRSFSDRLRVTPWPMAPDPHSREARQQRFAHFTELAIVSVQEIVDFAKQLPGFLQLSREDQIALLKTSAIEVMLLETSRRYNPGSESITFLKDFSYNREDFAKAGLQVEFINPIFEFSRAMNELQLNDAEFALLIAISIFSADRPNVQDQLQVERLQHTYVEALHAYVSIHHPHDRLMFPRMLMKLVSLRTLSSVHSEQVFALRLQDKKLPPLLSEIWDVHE
Method in brief: as §1

[3] = efficacy at max dose in relation to reference T0901317, LXR alpha-LBD

SMILES	EC50 [1] [µM]	Emax [1] [%]	LXR alpha IP (nM) [2]	Emax [2, 3] [%]	EC50 [2] [µM]	LXR beta actiivty at max dose (%) [1] [%]	LXR alpha actiivty at max dose (%) [2, 3] [%]
CN(C)C(=O)c1ccc(N2CCC(CCCN(C)C(=O)[C@@]3(c4ccccc4)CCOC3)CC2)nc1Cl [Example 1-55, (R)-2-chloro-N,N-dimethyl-6-(4-(3-(N-methyl-3-phenyltetrahydrofuran-3-carboxamido)propyl)piperidin-1-yl)nicotinamide]	0.856	48	No IP	16	–	–	–
CN(C)C(=O)c1ccc(N2CCC3(CC2)CC3CCN(C)C(=O)[C@@](O)(c2ccccc2)C(F)(F)F)cc1Cl (stereo partly drawn) [Example 7-1, 2-chloro-N,N-dimethyl-4-(1-(2-((S)-3,3,3-trifluoro-2-hydroxy-N-methyl-2-phenylpropanamido)ethyl)-6-azaspiro[2.5]octan-6-yl)benzamide]	0.342	54	–	10	4.09	–	–
COc1cccc([C@@](O)(C(=O)N(C)CC[C@H]2CC23CCN(c2ccc(C(=O)N(C)C)c(Cl)c2)CC3)C(F)(F)F)c1 [Example 7-6, 2-chloro-N,N-dimethyl-4-((R)-1-(2-((R)-3,3,3-trifluoro-2-hydroxy-2-(3-methoxyphenyl)-N-methylpropanamido)ethyl)-6-azaspiro[2.5]octan-6-yl)benzamide]	0.021	76	–	33	0.439	–	–
CC(C)N(C)C(=O)c1ccc(N2CCC3(CC2)C[C@H]3CCN(C)C(=O)[C@](O)(c2ccccc2)C(F)(F)F)cc1Cl [Example 7-29, 2-chloro-N-isopropyl-N-methyl-4-((S)-1-(2-((R)-3,3,3-trifluoro-2-hydroxy-N-methyl-2-phenylpropanamido)ethyl)-6-azaspiro[2.5]octan-6-yl)benzamide]	0.611	40	No IP	5	–	–	–
CN(C)C(=O)c1ccc(N2CCC(CCCN(C)C(=O)[C@@](O)(c3cccc(C4CC4)c3)C(F)(F)F)CC2)nc1Cl [Example 1-34, (S)-2-chloro-6-(4-(3-(2-(3-cyclopropylphenyl)-3,3,3-trifluoro-2-hdyroxy-N-methylpropanamido)propyl)piperidin-1-yl)-N,N-dimethylnicotinamide]	0.261	49	No IP	16	–	–	–
CN(C)C(=O)c1ccc(N2CCC(CCCN(C)C(=O)[C@]3(c4ccccc4F)CCCO3)CC2)nc1Cl [Example 1-6, (R)-2-chloro-6-(4-(3-(2-(2-fluorophenyl)-N-methyl-tetrahydrofuran-2-carboxamido)propyl)piperidin-1-yl)-N,N-dimethylnicotinamide]	0.064	80	–	27	1.46	–	–
COc1cccc([C@@](O)(C(=O)N(C)CC[C@H]2CC23CCN(c2ccc(C(=O)NC(C)C)c(Cl)c2)CC3)C(F)(F)F)c1 [Example 7-10, 2-chloro-N-isopropyl-4-((R)-1-(2-((R)-3,3,3-trifluoro-2-hydroxy-2-(3-methoxyphenyl)-N-methylpropanamido)ethyl)-6-azaspiro[2.5]octan-6-yl)benzamide]	0.1	58	–	35	1.06	–	–
CN(C)C(=O)c1ccc(N2CCC3(CC2)C[C@H]3CCN(C)C(=O)[C@](O)(c2ccccc2)C(F)(F)F)cc1Cl [Example 7-25, 2-chloro-N,N-dimethyl-4-((S)-1-(2-((R)-3,3,3-trifluoro-2-hydroxy-N-methyl-2-phenylpropanamido)ethyl)-6-azaspiro[2.5]octan-6-yl)benzamide]	0.473	46	–	22	3.1	–	–
CC(C)Oc1cccc(C(O)(C(=O)N(C)CCCC2CCN(c3ccc(C(=O)N(C)C)c(Cl)n3)CC2)C(F)(F)F)c1 (stereo not shown) [Example 1-32, 2-chloro-N,N-dimethyl-6-(4-(3-(3,3,3-trifluoro-2-hydroxy-2-(3-isopropoxyphenyl)-N-methylpropanamido)propyl)piperidin-1-yl)nicotinamide]	0.095	48	No IP	0	–	–	–
CN(C)C(=O)c1ccc(N2CCC(CCCCN(C)C(=O)C(O)(c3ccccc3)C(F)(F)F)CC2)cc1Cl (stereo not shown) [Example 4-11, 2-chloro-N,N-dimethyl-4-(4-(4-(3,3,3-trifluoro-2-hydroxy-N-methyl-2-phenylpropanamido)butyl)piperidin-1-yl)benzamide]	0.12	40	No IP	0	–	–	–
CN(C)C(=O)c1ccc(N2CCC(CCCN(C)C(=O)C(O)(c3ccccc3)C(F)(F)F)CC2)cc1Cl (single isomer, unassigned) [Example 4-4, 2-chloro-N,N-dimethyl-4-(4-(3-(3,3,3-trifluoro-2-hydroxy-N-methyl-2-phenylpropanamido)propyl)piperidin-1-yl)benzamide]	0.045	–	–	14	1.58	59	–
CCOc1cccc([C@@](O)(C(=O)NCCCC2CCN(c3ccc(C(=O)N(C)C)c(Cl)n3)CC2)C(F)(F)F)c1 [Example 5-10, (R)-2-chloro-6-(4-(3-(2-(3-ethoxyphenyl)-3,3,3-trifluoro-2-hydroxy-propanamido)propyl)piperidin-1-yl)-N,N-dimethylnicotinamide]	0.343	58	No IP	3	–	–	–
CN(C)C(=O)c1ccc(N2CCC(CCCN(C)C(=O)C(O)(c3ccccc3)C(F)(F)F)CC2)cc1Cl (single isomer, unassigned) [Example 4-6, 2-chloro-N,N-dimethyl-4-(4-(3-(3,3,3-trifluoro-2-hydroxy-N-methyl-2-phenylpropanamido)propyl)piperidin-1-yl)benzamide]	0.077	–	–	–	0.677	73	15
CC(C)C(O)(C(=O)NCCCC1CCN(c2ccc(C(=O)N(C)C)c(Cl)c2)CC1)C(F)(F)F (stereo not shown) [Example 5-2, 2-chloro-4-(4-(3-(2-hydroxy-3-methyl-2-(trifluoromethyl)butanamido)propyl)piperidin-1-yl)-N,N-dimethyl-benzamide]	0.686	80	No IP	11	–	–	–
CN(C)C(=O)c1ccc(N2CCC(CCCN(C)C(=O)[C@]3(c4ccccc4)CCOC3)CC2)nc1Cl [Example 1-54, (S)-2-chloro-N,N-dimethyl-6-(4-(3-(N-methyl-3-phenyltetrahydrofuran-3-carboxamido)propyl)piperidin-1-yl)nicotinamide]	0.579	49	No IP	15	–	–	–
COc1cccc([C@@](O)(C(=O)N(C)CCCC2CCN(c3ccc(C(=O)NC(C)C)c(Cl)n3)CC2)C(F)(F)F)c1 [Example 2-1, (R)-2-chloro-N-isopropyl-6-(4-(3-(3,3,3-trifluoro-2-hydroxy-2-(3-methoxyphenyl)-N-methylpropanamido)propyl)piperidin-1-yl)nicotinamide]	0.686	51	No IP	18	–	–	–
